# Experimental data taken from article PMC5986654, “Combined HAT/EZH2 modulation leads to cancer-selective cell death” (Oncotarget, 2018).
# Experiments:
# [1] = tested on: endometrial stromal cells; experiment: Cytotoxic effect on immortalized non-cancer endometrial stromal cells; format: cell-based
# CYP2C9 = target: T1, CYP2C9 (Homo sapiens, UniProt P11712); experiment: Cytochrome P450 inhibition, CYP2C9; format: in vitro ADME; details: human liver microsomes, probe tolbutamide
# T1 construct: from tissue; host or cells: human liver microsomes
# T1 sequence (P11712 whole entry): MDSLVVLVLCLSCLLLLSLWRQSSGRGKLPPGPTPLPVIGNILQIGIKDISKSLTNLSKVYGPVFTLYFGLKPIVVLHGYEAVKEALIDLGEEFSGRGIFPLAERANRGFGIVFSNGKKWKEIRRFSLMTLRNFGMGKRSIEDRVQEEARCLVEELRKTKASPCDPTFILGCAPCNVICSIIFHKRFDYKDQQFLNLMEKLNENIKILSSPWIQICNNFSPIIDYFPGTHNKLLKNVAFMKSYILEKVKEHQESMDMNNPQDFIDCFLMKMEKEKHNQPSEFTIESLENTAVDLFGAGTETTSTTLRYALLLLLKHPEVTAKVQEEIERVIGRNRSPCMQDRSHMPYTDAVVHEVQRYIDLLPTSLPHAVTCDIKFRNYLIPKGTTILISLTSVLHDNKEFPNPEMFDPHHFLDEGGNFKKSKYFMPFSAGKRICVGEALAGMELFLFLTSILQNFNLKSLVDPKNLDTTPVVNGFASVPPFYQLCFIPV
# Description: This provided a dose of 2 mg free base material/kg when Cytochrome p450 inhibition (5 isoform iC50 administered iv in a 5 mL/kg dosing volume. determination) mouse terminal ip pK study ADME-Tox Cytochrome P450 inhibition of Compound MC2884 was given ip at a dose of 2 mg/kg MC2884 using human liver microsomes as an estimation to a group of 24 normally fed male CD1 mice in a 10 mL/ of in vitro metabolism. kg injection volume. Terminal blood samples (> 230 μL) MC2884 (0.1 μM–25 μM) was incubated with were taken under CO2 from groups of 3 mice at each of 8 human liver microsomes and NADPH in the presence time-points post dose (0.083, 0.25, 0.5, 1, 2, 4, 8 and 24 h) of a cytochrome P450 isoform-specific probe substrate. and placed into heparinized tubes. […]
# All samples were stored at −20° C measuring the formation of a fluorescent metabolite. […]
# Cyp2C19 inhibition (0.1 mg/mL) and NADPH (1 mM) in the presence of the probe substrate midazolam (2.5 μM) for 5 min at Six test compound samples at concentrations 37° C. […] For the CYP1A incubations, the reactions microsomes (0.5 mg/mL) and NADPH (1 mM) in the were terminated by methanol, and the formation of the presence of the probe substrate mephenytoin (25 μM) metabolite, resorufin, was monitored by fluorescence for 60 min at 37° C. […]
compound,measurement,setting,value
O=C1/C(=C/c2cccc(Br)c2)CN(Cc2ccccc2)C/C1=C\c1cccc(Br)c1 [MC2884],cytotoxic effect on endometrial stromal cells,[1],insensitive
same,IC50,CYP2C9,> 25 µM
